This note sets out measurements from PMC12648310, “Modular Assembled Targeting Chimera Enables Multimodal Targeted Protein Degradation” (JACS Au, 2025).

Where two headings read alike, the source gives them in different places.

One data set addresses T1, BRD4 (Homo sapiens, UniProt O60885).
T1 construct: Western blot analysis of BET protein levels was performed across these 11 module assembly combinations; endogenous in cells; host or cells: MDA-MB-231
Kind of data set: Immunoblot of BRD4 degradation in MDA-MB-231 cells. The class given is cell-based. The conditions noted are these: component without its click partner. As to the method:
deprotection under General Procedure I, followed by condensation with compound 4 under General Procedure II, yielded AN2-C3-Tz as a purple oil in 60% yield (over two steps from 25).
The full NMR and MS spectra of the synthesized degrader compounds were shown in Appendix A and B, respectively. The degrader compounds were dissolved in DMSO as 10 mM stock solution and stored at -20℃, freeze-thaw cycle was avoided. Inhibitors for bioassays were purchased from […]
Cell culture and drug treatment
The breast cancer cells and leukemia cells used were purchased from Wuhan Purdue Life Technology Co., Ltd. All cell lines were tested for mycoplasma to ensure no contamination. […]
The fluorescence spectrum of POM-dTz was measured using a Hitachi F4500. […]
P0013G) premixed with a protease inhibitor cocktail. […] The supernatant was quantified and adjusted using a bicinchoninic acid (BCA) method and then boiled in an SDS loading buffer. […] After another 3 washes with TBST, the membrane was incubated with an enzymatic chemiluminescence (ECL) reagent, and the signal was detected instantly by a chemiluminescence imager (JP-K600, Jiapeng, Shanghai, China).
The signal values were quantified by ImageJ software. The expression level of a target protein was determined by the ratio of its signal value to GAPDH’s. […]

The nature of data set [1]: Pharmacokinetics in SD rats. It counts as in vivo, Sprague–Dawley (SD) rats. The conditions noted are these: for half-life / AUC(0-inf) / AUC(0-t) / Cmax / Tmax / bioavailability / MRT inf / C0 / Vd / clearance: male, Sprague-Dawley, rat, plasma; for MRT inf: read-out: MRTinf_obs; for clearance: read-out: CL_obs. As to the method:
Given the favorable cellular performance of the POM-dmTz and JQ1-TCO stoichiometric ratio, we further investigated their in vivo pharmacokinetic (PK) profiles (Figure ). […] Blood samples were collected from the jugular vein at 5 min, 15 min, 30 min, 1, 2, 4, 7, and 24 h postdosing for drug concentration analysis.
This pharmacokinetic study protocol used SPF grade male SD rats (6-8 weeks old, weight 200-300g, supplied by a biotechnology company in Beijing) to evaluate the metabolic characteristics of compound GP262 through intravenous injection (IV) and intraperitoneal injection (IP). The IV group received a dose of 5 mg/kg (2.5 mg/mL concentration, 2 mL/kg administration), while the IP group […]
consisted of 3 fasted animals. The IV group solvent was a mixed system containing 10% DMSO, 60% PEG400, and 30% water. Collect whole blood samples at 5 minutes, 15 minutes, 0.5 hours, 1, 2, 4, 7, and 24 hours after administration. Immediately after collection with EDTA-K2 anticoagulant tube, centrifuge at 4 ℃ and 4000 × g for 5 minutes. Separate the plasma and transfer it to an anticoagulant free EP tube. Store it at -75 ± 15 ℃ for testing at ultra-low temperature. Throughout the experiment, a dual drug group parallel control was set up, and standardized operating procedures were used to ensure the timeliness and storage stability of plasma separation, providing standardized biological samples for subsequent LC-MS/MS analysis. […]

In the case of `Cc1sc2c(c1C)C(c1ccc(Cl)cc1)=NC(CC(=O)NCCNC(=O)OC1CCC=CCCC1)c1nnc(C)n1-2` (stereo not shown) [JQ1-TCO], the “BRD4 degradation by single component alone” value on BRD4 is “neither component alone triggered detectable degradation”. Further, the half-life in data set [1] (IP 10 mg/kg) is about 124 min. Also, in data set [1] (IP 20 mg/kg, mean), the total exposure AUC(0-inf) was 7670 ng·h/mL, the AUC(0-t) came out at 7660 ng·h/mL, the Cmax came out at 1860 ng/mL and the Tmax is 25 min. Besides, in data set [1] (IP 20 mg/kg, mean), the bioavailability turned out to be 64%, the half-life is 124 min and the MRT inf is 193 min. In data set [1] (IV 5 mg/kg, mean), this compound came in with an area under the curve AUC(0-inf) of 1240 ng·h/mL, an AUC(0-t) of 1240 ng·h/mL, a C0 of 2030 ng/mL and a Vd of 10.3 L/kg. In addition, in data set [1] (IV 5 mg/kg, mean), the half-life is 118 min, the clearance was determined as 69 mL/min/kg and the MRT inf was determined as 44 min.

Take `Cc1nnc(CNC(=O)CCOCC(COCCC(=O)NCc2nnc(C)nn2)NC(=O)COc2cccc3c2C(=O)N(C2CCC(=O)NC2=O)C3=O)nn1` (stereo not shown) [POM-dmTz]: at BRD4, the “BRD4 degradation by single component alone” value is listed as “neither component alone triggered detectable degradation”. Besides, in data set [1] (IP 10 mg/kg), the T1/2 result is “shorter half-life” and the half-life is 22.6 min. Moreover, in data set [1] (IP 10 mg/kg, mean), the AUC(0-inf) came to 406 ng·h/mL, the AUC(0-t) was found to be 405 ng·h/mL, the Cmax came out at 398 ng/mL and the Tmax came out at 25 min. This compound yielded a bioavailability in data set [1] (IP 10 mg/kg, mean) of 40.5%. In data set [1] (IV 5 mg/kg, mean), this compound yielded a total exposure AUC(0-inf) of 500 ng·h/mL, an AUC(0-t) of 496 ng·h/mL, a C0 of 1850 ng/mL and a Vd of 9.39 L/kg. Further, in data set [1] (IV 5 mg/kg, mean), the half-life was 40.2 min, the clearance amounted to 171 mL/min/kg and the MRT inf was 21.3 min.
